# Test results reported in patent US8921405B2, “Compounds” (Orexo AB, priority 2009, dated 2014).
# Target: T1, recombinant human mPGES-1 (Homo sapiens, UniProt O14684)
# T1 construct: made in house; host or cells: Rosetta E. coli (membrane/microsome fraction)
# T1 sequence (O14684 1-152): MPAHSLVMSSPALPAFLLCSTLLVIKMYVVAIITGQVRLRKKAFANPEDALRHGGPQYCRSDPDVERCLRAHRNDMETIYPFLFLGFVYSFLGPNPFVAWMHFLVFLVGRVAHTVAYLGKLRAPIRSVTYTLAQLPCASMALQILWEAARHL
# Experiment: mPGES-1 HTRF assay (inhibition of PGE2 formation from PGH2)
# Assay type: biochemical
# Conditions: HTRF assay; for inhibition at 10 µM: compound concentration of 10 μM, read-out: % inhibition
# How it was run: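 Microsomes of E. coli expressing human mPGES-1, in 0.1 M KPi pH 7.4 with 2.5 mM GSH, preincubated 25 min at room temperature with inhibitor, then given PGH2 for 1 min before FeCl2 acidic stop. PGE2 quantified by HTRF (665/620 nm ratio) against synthetic PGE2 standard curve; percent inhibition versus controls.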
IC50,inhibition at 10 µM,Compound
,98%,"Cn1c(Nc2cc(CNC(=O)C3(C(F)(F)F)CC3)ccc2Cl)nc2cc(C(=O)NCC3CCCCC3)ccc21 [Example 30, 2-{2-chloro-5-[(1-trifluoromethylcyclopropylamido)methyl]phenyl-amino}-N-cyclohexylmethyl-1-methylbenzimidazole-5-carboxamide]"
,100%,"Cn1c(Nc2cc(CNC(=O)C3(C#N)CC3)ccc2Cl)nc2cc(C(=O)Nc3ccc(Br)cc3)ccc21 [Example 38, N-(4-Bromophenyl)-2-{2-chloro-5-[(1-cyanocyclopropylamido)methyl]-phenylamino}-1-methylbenzimidazole-5-carboxamide]"
3 nM,,"CN(C)CCn1c(Nc2cc(CNC(=O)C3(C(F)(F)F)CC3)ccc2Cl)nc2cc(C(=O)Nc3ccc(Br)cc3)ccc21 [Example 70, N-(4-Bromo-phenyl)-2-(2-chloro-5-{[(1-trifluoromethyl-cyclopropanecarbonyl)-amino]-methyl}-phenylamino)-1-(2-(dimethylamino)ethyl)-1H-benzimidazole-5-carboxylic acid amide]"
,98%,"Cn1c(Nc2cc(CNS(=O)(=O)c3cccs3)ccc2Cl)nc2cc(C(=O)NCC3CCCCC3)ccc21 [Example 9, 2-{2-Chloro-5-[(2-thienylsulfonamido)methyl]phenylamino}-N-cyclohexylmethyl-1-methylbenzimidazole-5-carboxamide]"
,100%,"Cn1c(Nc2cc(CNC(=O)C3(C)CCCO3)ccc2Cl)nc2cc(C(=O)Nc3ccc(Br)cc3)ccc21 (stereo not drawn) [Example 49, N-(4-Bromophenyl)-2-{2-chloro-5-[(2-methyl-2-tetrahydrofurylamido)-methyl]phenylamino}-1-methylbenzimidazole-5-carboxamide]"
,100%,"Cn1c(Nc2cc(CNC(=O)C3CCCO3)ccc2Cl)nc2cc(C(=O)NCC3CCCCC3)ccc21 (stereo not drawn) [Example 28, 2-{2-Chloro-5-[(2-tetrahydrofurylamido)methyl]phenylamino}-N-cyclohexylmethyl-1-methylbenzimidazole-5-carboxamide]"
2 nM,,"Cn1c(Nc2cc(CNC(=O)C(C)(C)C)ccc2Cl)nc2cc(C(=O)NCC3CCC3)c(OCC(F)F)cc21 [Example 89, N-(Cyclobutylmethyl)-2-(2-chloro-5-{[(tert-butylcarbonyl)-amino]-methyl}-phenylamino)-6-(2,2-difluoro-ethoxy)-1-methyl-1H-benzimidazole-5-carboxylic acid amide]"
4 nM,,"Cn1c(Nc2cc(CNC(=O)C3(C(F)(F)F)CC3)c(F)cc2Cl)nc2cc(C(=O)N[C@H]3CC[C@H](C(F)(F)F)CC3)c(OCC(F)F)cc21 [Example 84, 2-(2-Chloro-4-fluoro-5-{[(1-(trifluoromethyl)cyclopropanecarbonyl)amino]methyl}-phenylamino)-6-(2,2-difluoroethoxy)-1-methyl-N-(trans-4-trifluoromethyl-cyclohex-1-yl)-1 H-benzo[d]imidazole-5-carboxamide]"
,100%,"Cn1c(Nc2cc(CNC(=O)C3(C)CCCCC3)ccc2Cl)nc2cc(C(=O)Nc3ccc(Br)cc3)ccc21 [Example 21, N-(4-Bromophenyl)-2-{2-chloro-5-[(1-methylcyclohexylamido)methyl]-phenylamino}-1-methylbenzimidazole-5-carboxamide]"
1 nM,,"Cn1c(Nc2cc(CNC(=O)C(C)(C)C)ccc2C(F)(F)F)nc2cc(C(=O)N[C@H]3CC[C@H](C(F)(F)F)CC3)c(OCC(F)F)cc21 [Example 95, N-(trans-4-Trifluoromethyl-cyclohex-1-yl)-1-methyl-2-(2-trifluoromethyl-5-{[(tert-butylcarbonyl)-amino]-methyl}-phenylamino)-6-(2,2-difluoro-ethoxy)-1H-benzimidazole-5-carboxylic acid amide]"
2 nM,,"Cn1c(Nc2cc(CNC(=O)C3(C(F)(F)F)CC3)ccc2Cl)nc2cc(C(=O)Nc3ccc(Br)cc3)c(OCC(F)F)cc21 [Example 59, N-(4-Bromo-phenyl)-2-(2-chloro-5-{[(1-trifluoromethyl-cyclopropanecarbonyl)-amino]-methyl}-phenylamino)-6-(2,2-difluoro-ethoxy)-1-methyl-1H-benzimidazole-5-carboxylic acid amide]"

# The next lines start with the molecule.
Compound,IC50,inhibition at 10 µM
"COc1cc2c(cc1C(=O)Nc1ccc(Br)cc1)nc(Nc1cc(CNC(=O)C3(C(F)(F)F)CC3)ccc1Cl)n2C [Example 63, N-(4-Bromo-phenyl)-2-(2-chloro-5-{[(1-trifluoromethyl-cyclopropanecarbonyl)-amino]-methyl}-phenylamino)-6-methoxy-1-methyl-1H-benzimidazole-5-carboxylic acid amide]",2 nM,
"Cn1c(Nc2cc(CNC(=O)C3(C)CCCCC3)ccc2Cl)nc2cc(C(=O)NC3CCCC3)ccc21 [Example 14, 2-{2-Chloro-5-[(1-methylcyclohexylamido)methyl]phenylamino}-N-cyclopentyl-1-methylbenzimidazole-5-carboxamide]",,100%
"CC1(C(=O)NCc2ccc(Cl)c(Nc3nc4cc(Cl)c(C(=O)NC5CCCC5)cc4[nH]3)c2)CCCCC1 [Example 24, 6-Chloro-2-{2-chloro-5-[(1-methylcyclohexylamido)methyl]phenylamino}-N-cyclopentylbenzimidazole-5-carboxamide]",,97%
"CC1(C(=O)NCc2ccc(Cl)c(Nc3nc4ccc(C(=O)NC5CCCC5)cc4[nH]3)c2)CCCCC1 [Example 13, 2-{2-Chloro-5-[(1-methylcyclohexylamido)methyl]phenylamino}-N-cyclopentylbenzimidazole-5-carboxamide]",,100%
"Cn1c(Nc2cc(CNC(=O)C3(C)CCC(F)(F)CC3)ccc2Cl)nc2cc(C(=O)Nc3ccc(Br)cc3)ccc21 [Example 51, N-(4-Bromophenyl)-2-{2-chloro-5-[(4,4-difluoro-1-methylcyclohexyl-amido)methyl]phenylamino}-1-methylbenzimidazole-5-carboxamide]",,94%
"Cn1c(Nc2cc(CNS(=O)(=O)C(C)(C)C)ccc2Cl)nc2cc(C(=O)Nc3ccc(Br)cc3)c(OCC(F)F)cc21 [Example 82, N-(4-Bromo-phenyl)-2-(2-chloro-5-{[(tert-butylsulfonyl)-amino]-methyl}-phenylamino)-6-(2,2-difluoro-ethoxy)-1-methyl-1H-benzimidazole-5-carboxylic acid amide]",3 nM,
"Cn1c(Nc2cc(CNC(=O)C3(C(F)(F)F)CC3)ccc2Cl)nc2cc(C(=O)NCC3CC3)ccc21 [Example 11, 2-{2-chloro-5-[(1-trifluoromethylcyclopropylamido)methyl]phenylamino}-N-cyclopropylmethyl-1-methylbenzimidazole-5-carboxamide]",,100%
Cn1c(Nc2cc(CNC(=O)OC(C)(C)C)ccc2Cl)nc2cc(C(=O)NCC3CCCCC3)ccc21 [Example 33],,93%
"Cn1c(Nc2cc(CNC(=O)C3(C)CCCCC3)ccc2Cl)nc2cc(C(=O)NCCN3CCCCC3)ccc21 [Example 17, 2-{2-Chloro-5-[(1-methylcyclohexylamido)methyl]phenylamino]-1-methyl-N-[2-(1-piperidinyl)ethyl]benzimidazole-5-carboxamide]",,95%
"Cn1c(Nc2cc(CNC(=O)C3(C)CCCCC3)ccc2Cl)nc2cc(C(=O)NCCOC(C)(C)C)ccc21 [Example 15, N-(2-tert-Butoxyethyl)-2-{2-chloro-5-[(1-methylcyclohexylamido)methyl]phenylamino}-1-methylbenzimidazole-5-carboxamide]",,99%
"Cn1c(Nc2cc(CNS(=O)(=O)C3CC3)ccc2Cl)nc2cc(C(=O)Nc3ccc(Br)cc3)ccc21 [Example 45, N-(4-Bromophenyl)-2-{2-chloro-5-[(cyclopropylsulfonamido)methyl]-phenylamino}-1-methylbenzimidazole-5-carboxamide]",,100%
"Cn1c(Nc2cc(CNC(=O)C3(C(F)(F)F)CC3)ccc2F)nc2cc(C(=O)Nc3ccc(Br)cc3)c(OCC(F)F)cc21 [Example 66, N-(4-Bromo-phenyl)-2-(2-fluoro-5-{[(1-trifluoromethyl-cyclopropanecarbonyl)-amino]-methyl}-phenylamino)-6-(2,2-difluoro-ethoxy)-1-methyl-1H-benzimidazole-5-carboxylic acid amide]",3 nM,
"Cn1c(Nc2cc(CNC(=O)C3(C)CC3)ccc2Cl)nc2cc(C(=O)NCC3CCCCC3)ccc21 [Example 8, 2-{2-Chloro-5-[(1-methylcyclopropylamido)methyl]phenylamino}-N-cyclohexylmethyl-1-methylbenzimidazole-5-carboxamide]",,98%
"Cn1c(Nc2cc(CNC(=O)C3(C)CCCCC3)ccc2Cl)nc2cc(Cl)c(NC(=O)c3ccc(Br)cc3)cc21 [Example 25, 4-Bromo-N-(5-chloro-2-{2-chloro-5-[(1-methylcyclohexylamido)methyl]phenylamino}-1-methyl-6-benzimidazolyl)benzamide]",,99%
"Cn1c(Nc2cc(CNC(=O)C3(C(F)(F)F)CC3)ccc2Cl)nc2cc(C(=O)Nc3ccc(Br)cc3)ccc21 [Example 37, N-(4-Bromophenyl)-2-{2-chloro-5-[(1-trifluoromethylcyclopropylamido)methyl]phenylamino}-1-methylbenzimidazole-5-carboxamide]",,100%
"Cn1c(Nc2cc(CN[S+]([O-])C(C)(C)C)ccc2Cl)nc2cc(C(=O)Nc3ccc(Br)cc3)c(OCC(F)F)cc21 (stereo not drawn) [Example 81, N-(4-Bromo-phenyl)-2-(2-chloro-5-{[(tert-butylsulfinyl)-amino]-methyl}-phenylamino)-6-(2,2-difluoro-ethoxy)-1-methyl-1H-benzimidazole-5-carboxylic acid amide]",2 nM,
